Measured values taken from US10188634B2, “3-(3H-imidazo[4,5-C]pyridin-2-yl)-1 H-pyrazolo[4,3-B]pyridines and therapeutic uses thereof” (Samumed, LLC, priority 2015, dated 2019).

Tests used:
SW480 colon cancer cells = assay: Cell viability assay (CellTiter-Blue) in SW480 colon cancer cells; assay type: cell-based; conditions: Homo sapiens, 96 h; for inhibition at 10 µM: four days, CellTiter-Blue, read-out: percent inhibition at 10 μM (given for EC50 of >10 μM); for EC50: four days incubation, CellTiter-Blue cell viability
Summary of the method: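 About 2×10^3 SW480 colon cancer cells per well were exposed to compound (8-point 1:3 dilutions, 10 μM to 0.004 μM) for four days at 37 °C. Viability was read by CellTiter-Blue resazurin reduction (~3 h, Ex 560/Em 590). EC50 from nonlinear regression; above 10 μM, % inhibition at 10 μM is reported.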

[1] = tested on: LL29 cells (primary human fibroblasts derived from IPF patients) treated with TGF-β1, α-smooth muscle actin; assay: Inhibition of the fibrotic process: αSMA staining in TGF-β1 treated primary human fibroblasts from IPF patients (LL29 cells); assay type: cell-based; conditions: Fibroblast, 96 h; for EC50: LL29 cells treated with TGF-β1 (20 ng/mL), 4 days; for inhibition at 10 µM: LL29 cells treated with TGF-β1, 4 days, read-out: percent inhibition in brackets (given for EC50 >10 μM)

| SMILES | EC50 (SW480 colon cancer cells) | inhibition at 10 µM (SW480 colon cancer cells) | EC50 [1] | inhibition at 10 µM [1] |
| --- | --- | --- | --- | --- |
| CN(C)Cc1cncc(-c2ccc3[nH]nc(-c4nc5c(N6CCCCC6)cncc5[nH]4)c3n2)c1 [Compound 181, N,N-Dimethyl-1-(5-(3-(7-(piperidin-1-yl)-3H-imidazo[4,5-c]pyridin-2-yl)-1H-pyrazolo[4,3-b]pyridin-5-yl)pyridin-3-yl)methanamine] | 7.75 µM |  | 8.03 µM |  |
| Cc1cn(-c2cncc3[nH]c(-c4n[nH]c5ccc(-c6cncc(NC(=O)C(C)(C)C)c6)nc45)nc23)cn1 [Compound 204, N-(5-(3-(7-(4-methyl-1H-imidazol-1-yl)-3H-imidazo[4,5-c]pyridin-2-yl)-1H-pyrazolo[4,3-b]pyridin-5-yl)pyridin-3-yl)pivalamide] | > 10 µM | 4.7% | > 10 µM | 0% |
| CN1CCN(c2cncc3[nH]c(-c4n[nH]c5ccc(-c6cncc(NC(=O)C7CCCC7)c6)nc45)nc23)CC1 [Compound 246, N-(5-(3-(7-(4-Methylpiperazin-1-yl)-3H-imidazo[4,5-c]pyridin-2-yl)-1H-pyrazolo[4,3-b]pyridin-5-yl)pyridin-3-yl)cyclopentanecarboxamide] | > 10 µM | 1% | > 10 µM | 48.7% |
| CN1CCN(c2cncc3[nH]c(-c4n[nH]c5ccc(-c6cncnc6)nc45)nc23)CC1 [Compound 251, 3-(7-(4-Methylpiperazin-1-yl)-3H-imidazo[4,5-c]pyridin-2-yl)-5-(pyrimidin-5-yl)-1H-pyrazolo[4,3-b]pyridine] | > 10 µM | 0% | > 10 µM | 44.6% |
| CCNCc1cncc(-c2ccc3[nH]nc(-c4nc5c(-c6ccoc6)cncc5[nH]4)c3n2)c1 [Compound 286, N-((5-(3-(7-(Furan-3-yl)-3H-imidazo[4,5-c]pyridin-2-yl)-1H-pyrazolo[4,3-b]pyridin-5-yl)pyridin-3-yl)methyl)ethanamine] | 2.13 µM |  | > 10 µM | 0% |
| CCCCC(=O)Nc1cncc(-c2ccc3[nH]nc(-c4nc5c(-c6ccoc6)cncc5[nH]4)c3n2)c1 [Compound 299, N-(5-(3-(7-(Furan-3-yl)-3H-imidazo[4,5-c]pyridin-2-yl)-1H-pyrazolo[4,3-b]pyridin-5-yl)pyridin-3-yl)pentanamide] | > 10 µM | 6.7% | > 10 µM | 38.1% |
| CCC(=O)Nc1cncc(-c2ccc3[nH]nc(-c4nc5c(-c6cccs6)cncc5[nH]4)c3n2)c1 [Compound 309, N-(5-(3-(7-(Thiophen-2-yl)-3H-imidazo[4,5-c]pyridin-2-yl)-1H-pyrazolo[4,3-b]pyridin-5-yl)pyridin-3-yl)propionamide] | > 10 µM | 0% | > 10 µM | 0% |
| CN(C)Cc1cncc(-c2ccc3[nH]nc(-c4nc5c(-c6cccs6)cncc5[nH]4)c3n2)c1 [Compound 321, N,N-dimethyl-1-(5-(3-(7-(thiophen-2-yl)-3H-imidazo[4,5-c]pyridin-2-yl)-1H-pyrazolo[4,3-b]pyridin-5-yl)pyridin-3-yl)methanamine] | 4.74 µM |  | 7.46 µM |  |
| c1csc(-c2cncc3[nH]c(-c4n[nH]c5ccc(-c6ccncc6)nc45)nc23)c1 [Compound 326, 5-(Pyridin-4-yl)-3-(7-(thiophen-2-yl)-3H-imidazo[4,5-c]pyridin-2-yl)-1H-pyrazolo[4,3-b]pyridine] | > 10 µM | 0% | > 10 µM | 26.6% |
| O=C(Nc1cncc(-c2ccc3[nH]nc(-c4nc5c(-c6cccs6)cncc5[nH]4)c3n2)c1)C1CC1 [Compound 328, N-(5-(3-(7-(Thiophen-2-yl)-3H-imidazo[4,5-c]pyridin-2-yl)-1H-pyrazolo[4,3-b]pyridin-5-yl)pyridin-3-yl)cyclopropanecarboxamide] | > 10 µM | 10% | > 10 µM | 0% |
| Cc1ccc(-c2cncc3[nH]c(-c4n[nH]c5ccc(-c6cncc(NC(=O)C(C)C)c6)nc45)nc23)s1 [Compound 373, N-(5-(3-(7-(5-Methylthiophen-2-yl)-3H-imidazo[4,5-c]pyridin-2-yl)-1H-pyrazolo[4,3-b]pyridin-5-yl)pyridin-3-yl)isobutyramide] | > 10 µM | 2.6% | 2.63 µM |  |
| Cc1ccc(-c2cncc3[nH]c(-c4n[nH]c5ccc(-c6cncc(NC(=O)C7CCCC7)c6)nc45)nc23)s1 [Compound 386, N-(5-(3-(7-(5-Methylthiophen-2-yl)-3H-imidazo[4,5-c]pyridin-2-yl)-1H-pyrazolo[4,3-b]pyridin-5-yl)pyridin-3-yl)cyclopentanecarboxamide] | > 10 µM | 0.9% | > 10 µM | 0% |
| CCNCc1cncc(-c2ccc3[nH]nc(-c4nc5c(-c6cc(F)cc(NCCN(C)C)c6)cncc5[nH]4)c3n2)c1 [Compound 426, N^1-(3-(2-(5-(5-((Ethylamino)methyl)pyridin-3-yl)-1H-pyrazolo[4,3-b]pyridin-3-yl)-3H-imidazo[4,5-c]pyridin-7-yl)-5-fluorophenyl)-N^2,N^2-dimethylethane-1,2-diamine] | > 10 µM | 4.4% | 5.09 µM |  |

Second part, led by results:

| EC50 (SW480 colon cancer cells) | SMILES | inhibition at 10 µM (SW480 colon cancer cells) | EC50 [1] | inhibition at 10 µM [1] |
| --- | --- | --- | --- | --- |
| > 10 µM | CCCCC(=O)Nc1cncc(-c2ccc3[nH]nc(-c4nc5c(-c6ccccn6)cncc5[nH]4)c3n2)c1 [Compound 159, N-(5-(3-(7-(Pyridin-2-yl)-3H-imidazo[4,5-c]pyridin-2-yl)-1H-pyrazolo[4,3-b]pyridin-5-yl)pyridin-3-yl)pentanamide] | 9% | > 10 µM | 0.4% |
| > 10 µM | CCC(=O)Nc1cncc(-c2ccc3[nH]nc(-c4nc5c(N6CCCCC6)cncc5[nH]4)c3n2)c1 [Compound 169, N-(5-(3-(7-(Piperidin-1-yl)-3H-imidazo[4,5-c]pyridin-2-yl)-1H-pyrazolo[4,3-b]pyridin-5-yl)pyridin-3-yl)propionamide] | 2.2% | > 10 µM | 3% |
| > 10 µM | Cc1cn(-c2cncc3[nH]c(-c4n[nH]c5ccc(-c6cncc(NC(=O)CC(C)C)c6)nc45)nc23)cn1 [Compound 198, 3-Methyl-N-(5-(3-(7-(4-methyl-1H-imidazol-1-yl)-3H-imidazo[4,5-c]pyridin-2-yl)-1H-pyrazolo[4,3-b]pyridin-5-yl)pyridin-3-yl)butanamide] | 4.2% | > 10 µM | 0% |
| > 10 µM | Cc1cn(-c2cncc3[nH]c(-c4n[nH]c5ccc(-c6cncc(CN7CCCC7)c6)nc45)nc23)cn1 [Compound 210, 3-(7-(4-Methyl-1H-imidazol-1-yl)-3H-imidazo[4,5-c]pyridin-2-yl)-5-(5-(pyrrolidin-1-ylmethyl)pyridin-3-yl)-1H-pyrazolo[4,3-b]pyridine] | 4% | > 10 µM | 0% |
| > 10 µM | Cc1cn(-c2cncc3[nH]c(-c4n[nH]c5ccc(-c6cncc(NC(=O)C7CCC7)c6)nc45)nc23)cn1 [Compound 217, N-(5-(3-(7-(4-Methyl-1H-imidazol-1-yl)-3H-imidazo[4,5-c]pyridin-2-yl)-1H-pyrazolo[4,3-b]pyridin-5-yl)pyridin-3-yl)cyclobutanecarboxamide] | 0% | > 10 µM | 18.8% |
| > 10 µM | CN1CCN(c2cncc3[nH]c(-c4n[nH]c5ccc(-c6cncc(N)c6)nc45)nc23)CC1 [Compound 227, 5-(3-(7-(4-Methylpiperazin-1-yl)-3H-imidazo[4,5-c]pyridin-2-yl)-1H-pyrazolo[4,3-b]pyridin-5-yl)pyridin-3-amine] | 0% | 4.83 µM |  |
| > 10 µM | CC(C)C(=O)Nc1cncc(-c2ccc3[nH]nc(-c4nc5c(N6CCN(C)CC6)cncc5[nH]4)c3n2)c1 [Compound 233, N-(5-(3-(7-(4-Methylpiperazin-1-yl)-3H-imidazo[4,5-c]pyridin-2-yl)-1H-pyrazolo[4,3-b]pyridin-5-yl)pyridin-3-yl)isobutyramide] | 1% | > 10 µM | 3.4% |
| > 10 µM | O=C(Nc1cncc(-c2ccc3[nH]nc(-c4nc5c(-c6ccsc6)cncc5[nH]4)c3n2)c1)c1ccccc1 [Compound 263, N-(5-(3-(7-(Thiophen-3-yl)-3H-imidazo[4,5-c]pyridin-2-yl)-1H-pyrazolo[4,3-b]pyridin-5-yl)pyridin-3-yl)benzamide] | 0.3% | > 10 µM | 0% |
| > 10 µM | CCCCC(=O)Nc1cncc(-c2ccc3[nH]nc(-c4nc5c(-c6cc(F)cc(NCCN(C)C)c6)cncc5[nH]4)c3n2)c1 [Compound 439, N-(5-(3-(7-(3-((2-(Dimethylamino)ethyl)amino)-5-fluorophenyl)-3H-imidazo[4,5-c]pyridin-2-yl)-1H-pyrazolo[4,3-b]pyridin-5-yl)pyridin-3-yl)pentanamide] | 1.3% | 0.248 µM |  |
| > 10 µM | CS(=O)(=O)NCc1cc(F)cc(-c2cncc3[nH]c(-c4n[nH]c5ccc(-c6cncc(NC(=O)c7ccccc7)c6)nc45)nc23)c1 [Compound 459, N-(5-(3-(7-(3-Fluoro-5-(methylsulfonamidomethyl)phenyl)-3H-imidazo[4,5-c]pyridin-2-yl)-1H-pyrazolo[4,3-b]pyridin-5-yl)pyridin-3-yl)benzamide] | 1.8% | > 10 µM | 0% |
